Measurements from patent US20170283885A1, “ALGORITHMS FOR GENE SIGNATURE-BASED PREDICTOR OF SENSITIVITY TO MDM2 INHIBITORS” (DAIICHI SANKYO COMPANY, LIMITED, priority 2014, published 2017).

Test system: multi-cancer cell line panel
Experiment: OncoPanel cytotoxicity assay, whole panel summary
Type: cell-based, human
Description: This Example describes an evaluation of the effect of a representative small molecule MDM2i on the growth of cells in a multi-cancer cell line panel. In this Example, the MDM2 inhibitors used were Compound A and Compound B p-toluenensulfonate. The panel included 250 human cancer cell lines (OncoPanel™, Ricerca Biosciences, Painesville, Ohio) that were evaluated in a high content drug screening analysis. The relative IC50 values for the cell lines were determined.
Cells were grown in RPMI 1640, 10% FBS, 2 mM L-alanyl-L-Glutamine, 1 mM Na Pyruvate, or a special medium in a humidified atmosphere of 5% CO2 at 37° C. Cells were seeded into 384-well plates and incubated in a humidified atmosphere of 5% CO2 at 37° C. Test compounds were added 24 hours post cell seeding. […]
Compounds were serially diluted 3.16-fold and assayed over 10 concentrations of inhibitor in a final assay concentration of 0.1% DMSO from the highest test concentration specified in the sample information chapter. Automated fluorescence microscopy was carried out using a GE Healthcare InCell Analyzer 1000, and images were collected with a 4×objective. Twelve bit tiff images were acquired using the InCell Analyzer 1000 3.2 and analyzed with Developer Toolbox 1.6 software.
Cell proliferation was measured by the signal intensity of the incorporated nuclear dye. […]

CC[C@@H]1CNC2(CC2)CN1C(=O)[C@@H]1C[C@@H](F)CN1C(=O)C1=C(C(C)C)N2C(=N[C@@](C)(c3ccc(Cl)nc3)[C@H]2c2ccc(Cl)c(F)c2)S1 [Compound A, [(5R,6S)-5-(4-Chloro-3-fluorophenyl)-6-(6-chloropyridin-3-yl)-6-methyl-3-(propan-2-yl)-5,6-dihydroimidazo[2,1-b][1,3]thiazol-2-yl][(2S,4R)-2-{[(6R)-6-ethyl-4,7-diazaspiro[2.5]oct-7-yl]carbonyl}-4-fluoropyrrolidin-1-yl]methanone]
share of the cell lines with IC50 values of <1 μM: Approximately 25%
share of the cell lines with IC50 values of >10: approximately 70%
